Experiments:
Format in all cases: cell-based
[1] = test system: Escherichia coli (E. coli) cells; test: Phase noise of piezoelectric resonator with adhered microbes exposed to antibiotic; settings: for time frame in which the resonator method detects antimicrobial action against live E. coli cells: preliminary experiments; for PSDs of the acoustic resonators when the antibiotic was introduced: spectral power 4 Hz to 20 Hz, FIG. 35, FIG. 36
Experimental: An acoustic article was prepared to detect microbial viability through measurements of phase noise of a resonator on which microbes were adhered. An acoustic article was prepared by combining a piezoelectric resonator (commercially available from Biolin Scientific, model Q-Sense) and custom fabricated components that interfaced to the piezoelectric resonator. The piezoelectric resonator included an electrical contact to a piezoelectric crystal. […] One side of the piezoelectric crystal faced a fluid chamber and was coated with a thin layer of poly-L-lysine (PLL) to promote adhesion of microbes to the surface. The piezoelectric resonator was disposed on an aluminum platform that incorporated electrical lines to the resonator, and the platform was placed on a thermally controlled platform held at a constant temperature of approximately 37° C. Phosphate-buffered saline (PBS) was introduced to the fluid chamber, and electronics configured according to FIG. 30 and FIG. 31 were used to determine the resonant frequency of the resonator by varying the output frequency from frequency source 200 while monitoring the amplitude of the RF output from amplifier 222. The output frequency of the CW voltage from the frequency source was then set to this measured resonant frequency. Subsequently, averaged power spectral densities of phase noise from the resonator were determined from the measured time-varying voltage from phase-noise detector 106 passed to vector signal analyzer 206, through the use of a calibration of phase-noise detector 106. Following acquisition of this background spectrum, Escherichia coli (E. coli) cells were suspended in PBS and flowed through the fluid chamber over the crystal for five minutes. The chamber was then drained of fluid and refilled with Luria-Bertani (LB) broth to provide nutrients for bacterial growth. E. coli adhered to the crystal surface during this sequence, and unattached cells were washed away.
Power spectral densities (PSDs) were repeatedly acquired over a period beginning 30 minutes before ampicillin in LB was introduced to the crystal and ending 68 minutes after this introduction of ampicillin. Before the acquisition of each averaged spectrum, the output of frequency source 200 was retuned to the current frequency of the resonator while monitoring the output of amplifier 222. […] The background PSD in PBS has been subtracted from these spectra.
To provide a scalar quantity reflective of the measured PSDs, the spectra in FIG. 33 and similar spectra at other times during the experiment were integrated over the frequency range from 3 Hz to 20 Hz. This quantity, which is the total spectral power over this frequency range, is plotted in FIG. 34 as a function of time.
Simultaneous control measurements of PSDs were also acquired on a second piezoelectric crystal with the same sequence of introduction of fluids, except that the effector fluid contained no ampicillin. With this control crystal, PSDs increased continuously during the entire experiment.
The acoustic article, electronic circuitry, data acquisition procedures, and fluid-analyte processing steps described in Example 1 were used to probe the effect of an antibiotic, polymyxin B, on phase noise generated by E. coli Here, two identical resonators (“Crystal A” and “Crystal B”) were used in which Crystal B was not exposed to polymyxin B until more than 40 minutes after introduction of polymyxin B to Crystal A.
Measurements of PSDs of the first resonator (Crystal A) before and after exposure of E. coli to polymyxin B are shown in FIG. 35. […] Data from second resonator Crystal B with E. coli not exposed to polymyxin B during 0-40 minutes are shown in FIG. 36 and labelled as “Crystal B,” wherein data labelled as “Crystal A” are data taken in presence of polymyxin B during 0-40 minutes and later.

[2] = test system: Escherichia coli (E. coli) cells; test: Optical microscope images of cell density on the crystal
[3] = test system: Escherichia coli (E. coli) cells; test: Plating of cells collected from the crystal for enumeration of colony-forming units (CFUs); settings: LB-agar plates, growth at least 24 hours; for number of CFUs relative to a parallel sample not exposed to antibiotic: cells collected from crystal
Excerpt: To confirm the action of the antibiotic on E. coli viability, cells were collected from the surface of the crystal and plated after serial dilution onto LB-agar plates for enumeration of colony-forming units (CFUs).
To confirm the action of the antibiotic on E. coli viability, cells were collected from the surface of the resonators (Crystal A and Crystal B) and plated after serial dilution onto LB-agar plates for enumeration of colony-forming units (CFUs).

| Molecule | spectral power of phase noise soon after introduction of antibiotic ([1]; PSD integrated 3 Hz to 20 Hz, E. coli on PLL-coated crystal in LB, approx. 37° C., FIG. 34) | time after introduction of antibiotic at which spectral power began dropping towards the background level ([1]; PSD integrated 3 Hz to 20 Hz, FIG. 34) | time frame in which the resonator method detects antimicrobial action against live E. coli cells [1] | PSDs of the acoustic resonators when the antibiotic was introduced [1] | cell density after introduction of antibiotic ([2]; period beginning 30 min after introduction of ampicillin, FIG. 34) | number of CFUs relative to a parallel sample not exposed to antibiotic [3] | disintegration of E. coli cells [2] | CFUs recovered from treated resonators ([3]; FIG. 37) |
| --- | --- | --- | --- | --- | --- | --- | --- | --- |
| CC1(C)S[C@@H]2[C@H](NC(=O)[C@H](N)c3ccccc3)C(=O)N2[C@H]1C(=O)O [ampicillin] | essentially leveled off | approximately 30 minutes | within a one-hour time frame | dropped dramatically | dropped as a result of lysing and disintegration of cells | several log decrease |  |  |
| polymyxin B |  |  | within a one-hour time frame | dropped dramatically |  | greater than several log decrease | does not induce a disintegration | no CFUs were recovered |
